31 compounds from US7579474B2, “Substituted piperidines as modulators of dopamine neurotransmission” (NSAB, Filial AF Neurosearch AB, Sverige, priority 2004, dated 2009) can be followed below.

“And” between values parts separate entries of the source, which are not always exact repeats. Identical values can stand only once. Counter-ions that a name gives are not always drawn.

For data set [1], the system named is Locomotor activity in MK-801 pre-treated rats. The experiment in a line: Locomotor activity in MK-801 pre-treated rats. Particulars: for Locomotor activity, MK + example 100 μmol/kg: MK-801 0.7 mg/kg i.p. 90 minutes before test compound, recorded 30-60 minutes after administration.
Data set [2] has as its system DOPAC (3,4-dihydroxyphenylacetic acid) in the rat striatum. The experiment in a line: Increase of DOPAC in the rat striatum after systemic administration (in vivo neurochemistry). Particulars: maximal effects limited to 350-400% of control, range covers 95% of fits, Inactive = inactive at 100 μmol/kg; for ED50: sc; for ED50 DOPAC*: s.c. An excerpt:
After the behavioural activity sessions, the rats were decapitated and their brains rapidly taken out and put on an ice-cold petri-dish. The limbic forebrain, the striatum, the frontal cortex and the remaining hemispheral parts of each rat were dissected and frozen. Each brain part was subsequently analyzed with respect to its content of monoamines and their metabolites.
The monoamine transmitter substances (NA (noradrenaline), DA (dopamine), 5-HT (serotonin)) as well as their amine (NM (normethanephrine), 3-MT (3-methoxytyramine)) and acid (DOPAC (3,4-dihydroxyphenylacetic acid), 5-HIAA (5-hydroxyindoleacetic acid), HVA (homovanillic acid)) metabolites are quantified in brain tissue homogenates by HPLC separations and electrochemical detection.
The analytical method is based on two chromatographic separations dedicated for amines or acids. Two chromatographic systems share a common auto injector with a 10-port valve and two sample loops for simultaneous injection on the two systems. Both systems are equipped with a reverse phase column (Luna C18(2), dp 3 μm, 50*2 mm i.d., Phenomenex) and electrochemical detection is accomplished at two potentials on glassy carbon electrodes (MF-1000, Bioanalytical Systems, Inc.). Via a T-connection the column effluent is passed to the detection cell or to waste. This is accomplished by two solenoid valves, which block either the waste or detector outlet. By not letting the chromatographic front reach the detector, better detection conditions are achieved. The aqueous mobile phase (0.4 ml/min) for the acid system contains Citric Acid 14 mM, Sodium Citrate 10 mM, MeOH 15% (v/v) and EDTA 0.1 mM. Detection potentials relative to Ag/AgCl reference is 0.45 and 0.60V. The aqueous ion pairing mobile phase (0.5 ml/min) for the amine system contains Citric Acid 5 mM, Sodium Citrate 10 mM, MeOH 9% (v/v), MeCN 10.5% (v/v), Decane Sulfonic Acid 0.45 mM, and EDTA 0.1 mM. Detection potentials relative to Ag/AgCl reference is 0.45 and 0.65V.
ED50 values for the increase of DOPAC in striatum are calculated by curve fitting. For most compounds, the evaluation is based on 20 animals over the dose range 0, 3.7, 11, 33 and 100 μmol/kg s.c. in one single experiment. The DOPAC levels are normalised to control and fitted by least square minimization to the function “End-(End-Control)/(1+(dose/ED50)^Slope)”. The four parameters are fitted with the restrictions: ED50>0, 0.5<Slope<3, 350<End<400 or End=200% of control (see table 1). To estimate confidence levels for the parameters, the fit is repeated 100 times with a random evenly distributed squared weight (0 to 1) for every measurement value. Presented ED50-ranges cover 95% of these values.

The target of data set [3] is hERG ion channel (Homo sapiens, UniProt Q12809). As to the kind of experiment: Rb efflux through the hERG ion channel. Particulars: Rb efflux method. It counts as cell-based. An excerpt: The substances according to the present invention display a low potency at inhibiting the hERG channel, as measured by IC50 in a Rb+ efflux assay (Development and evaluation of high throughput functional assay methods for hERG potassium channel. Tang W, Kang 1, Wu X, Rampe D, Wang L, Shen H, Li Z, Dunnington D, Garyantes T. J Biomol Screen. 2001 October; 6(5):325-31), indicating a low risk for QT interval prolongation and arrhythmia in man.
In general terms: The hERG channel carries a current that helps repolarise heart muscle cells.

Data set [4] is classed as in vitro ADME. The conditions noted are these: rat, microsomes, 0.25 h, pH 7.4. Here is the method:
Rat liver microsomes were isolated as described by Förlin (1980) Effects of Clophen A50, 3-methylcholantrene, pregnenolone-16aq-carbonitrile and Phenobarbital on the hepatic microsomal cytochrome P-450-dependent monooxygenaser system in rainbow trout, salmo garirdneri, of different age and sex. Tox Appl Pharm. 54(3) 420-430, with minor modifications e.g. 3 mL/g liver of a 0.1 M Na/K*PO4 buffer with 0.15 M KCl, pH 7.4, (buffer 1) was added before homogenisation, the homogenate was centrifuged for 20 minutes instead of 15, the supernatant was ultracentrifuged at 100.000 g instead of 105.000 g and the pellet from the ultracentrifugation was resuspended in 1 mL/g liver of 20% v/v 87% glycerol in buffer 1.
1 μL of, 0.2 or 1 mM test substance diluted in water and 10 μL 20 mg/mL rat liver micro-some were mixed with 149 μL 37° C. buffer 1 and the reaction was started by addition of 40 μL 4.1 mg/mL NADPH. After 0 or 15 minutes incubation at 37° C. in a heating block (LAB-LINE, MULTI-BLOK Heater or lab4you, TS-100 Thermo shaker at 700 rpm) the reaction was stopped by addition of 100 μL pure acetonitrile. The protein precipitation was then removed by rejecting the pellet after centrifugation at 10.000 g for 10 minutes (Heraeus, Biofuge fresco) in 4° C. The test compound was analysed using HPLC-MS (Hewlett-Packard 1100MSD Series) with a Zorbax SB-C18 column (2.1*150 mm, 5 μm) using 0.03% formic acid and acetonitrile as mobile phase (gradient) or a Zorbax Eclipse XDB-C18 (3*75 mm, 3.5 μm) using 0.03% acetic acid and acetonitrile as mobile phase (gradient). The 15 min turnover was calculated as the fraction of test compound eliminated after 15 minutes, expressed in percent of 0 min levels, ie 100*[conc test compound at 0 min−concentration at 15 min]/conc at 0 min.
Preparation of liver microsomes was performed as described in Förlin (1980). Protocols for incubation with liver microsomes are referred in Crespi et Stresser (2000), and Renwick et al (2001).

hERG ion channel, sequence (Q12809 whole entry): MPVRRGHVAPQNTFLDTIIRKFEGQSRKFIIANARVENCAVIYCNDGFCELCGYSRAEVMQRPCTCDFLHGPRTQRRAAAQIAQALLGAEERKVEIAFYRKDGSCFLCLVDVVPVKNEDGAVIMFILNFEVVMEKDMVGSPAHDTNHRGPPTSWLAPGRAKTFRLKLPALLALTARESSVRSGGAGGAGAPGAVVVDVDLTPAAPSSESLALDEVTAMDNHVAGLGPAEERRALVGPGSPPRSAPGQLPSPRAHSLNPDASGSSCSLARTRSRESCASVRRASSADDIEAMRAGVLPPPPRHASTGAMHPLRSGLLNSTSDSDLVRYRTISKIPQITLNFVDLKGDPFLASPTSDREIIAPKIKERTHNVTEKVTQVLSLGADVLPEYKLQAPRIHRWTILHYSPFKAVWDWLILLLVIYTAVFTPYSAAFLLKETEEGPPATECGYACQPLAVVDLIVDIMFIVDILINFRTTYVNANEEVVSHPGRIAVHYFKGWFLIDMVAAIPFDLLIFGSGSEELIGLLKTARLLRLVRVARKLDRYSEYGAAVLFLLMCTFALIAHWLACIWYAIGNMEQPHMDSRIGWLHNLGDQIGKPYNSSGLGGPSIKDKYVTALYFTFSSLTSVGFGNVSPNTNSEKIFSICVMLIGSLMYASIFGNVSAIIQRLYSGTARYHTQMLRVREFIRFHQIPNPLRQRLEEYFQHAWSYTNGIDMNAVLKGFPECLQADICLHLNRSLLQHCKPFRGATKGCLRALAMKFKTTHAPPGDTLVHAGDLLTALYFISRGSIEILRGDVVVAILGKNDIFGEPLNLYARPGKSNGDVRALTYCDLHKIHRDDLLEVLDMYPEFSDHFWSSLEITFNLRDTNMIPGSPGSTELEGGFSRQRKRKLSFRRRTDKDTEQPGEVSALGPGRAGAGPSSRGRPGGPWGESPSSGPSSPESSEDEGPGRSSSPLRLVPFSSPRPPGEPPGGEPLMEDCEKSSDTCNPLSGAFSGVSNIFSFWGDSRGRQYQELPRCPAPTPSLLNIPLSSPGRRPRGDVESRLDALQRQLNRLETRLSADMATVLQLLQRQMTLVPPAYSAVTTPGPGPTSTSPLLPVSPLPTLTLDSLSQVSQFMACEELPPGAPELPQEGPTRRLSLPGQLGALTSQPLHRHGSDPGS

The term melting point denotes the temperature, or range, at which the solid turns liquid. In turn, `CCCN1CCC(O)(c2cccc(Cl)c2Cl)CC1` (as salt: hydrochloric acid salt) returned a melting point of 181 to 183 °C.

`CCCCN1CCC(O)(c2ccc(C)c(C(F)(F)F)c2)CC1` (as salt: hydrochloric acid salt) [Example 9, 1-BUTYL-4-[4-METHYL-3-(TRIFLUOROMETHYL)-PHENYL]PIPERIDIN-4-OL] yielded a melting point of 197 to 198 °C.

With `CCCN1CCC(O)(c2cccc(C(F)(F)F)c2F)CC1` [drawing 55], the “Locomotor activity, MK + example 100 μmol/kg” value in data set [1] is 17802 ± 6842 (P = 0.09) counts/30 min ± SEM.

Usually ED50 stands for the dose that gives a 50% effect, or the effect in half of the subjects. One may read the IC50 as the concentration needed to halve the response being measured. The compound `CCCN1CCC(O)(c2cccc(C(F)(F)F)c2F)CC1` [drawing 25] yielded an ED50 in data set [2] of 13 µmol/kg. The IC50 in data set [3] came to 161 µM.

Regarding `CCCCN1CCC(O)(c2ccc(C)c(C(F)(F)F)c2)CC1` [drawing 31], the 50% effect level in data set [2] (ED50) was put at a dose of 56 µmol/kg.

Turning to `CCCN1CCC(O)(c2cccc(C(F)(F)F)c2F)CC1` [Example 1, 4-[2-FLUORO-3-(TRIFLUOROMETHYL)PHENYL]-1-PROPYLPIPERIDIN-4-OL], the “turnover at 15 minutes” value in data set [4] stood at 27%.

As to `CCCCN1CCC(O)(c2cccc(C(F)(F)F)c2F)CC1` (as salt: hydrochloric acid salt) [Example 5, 4-[2-FLUORO-3-(TRIFLUOROMETHYL)PHENYL]-1-BUTYLPIPERIDIN-4-OL], the melting point is 138 °C.

`CCCN1CCC(O)(c2cccc(S(C)(=O)=O)c2)CC1` [drawing 22]: in data set [2], the “ED50 DOPAC*” value is reported as “Inactive***”.

`C[C@]12N[C@H](Cc3ccccc31)c1ccccc12` [MK-801, reference compound]: the “Locomotor activity, MK-801 0.7 mg/kg i.p.” value in data set [1] (MK-801 alone, 0.7 mg/kg i.p., recorded 30-60 minutes, one group per experiment, 0.7 mg/kg) is 40367 ± 9127 counts/30 min ± SEM and 32169 ± 10605 counts/30 min ± SEM and 30819 ± 12771 counts/30 min ± SEM and 42061 ± 2219 counts/30 min ± SEM and 58370 ± 3007 counts/30 min ± SEM.

On to `COCCN1CCC(O)(c2cccc(Cl)c2Cl)CC1` (as salt: hydrochloric acid salt), for which the melting point fell in the range of 135 to 137 °C.

As for `CCCN1CCC(O)(c2cccc(Cl)c2Cl)CC1` [drawing 57], the “Locomotor activity, MK + example 100 μmol/kg” value in data set [1] is recorded as 9564 ± 4584 (P =0.16) counts/30 min ± SEM.

`CCCN1CCC(c2cccc(C(F)(F)F)c2F)CC1` [reference compound] registered an ED50 in data set [2] of 9 µmol/kg. The compound further registered an IC50 in data set [3] of 7.97 µM.

In turn, `CCN1CCC(c2ccc(F)c(C(F)(F)F)c2)CC1` [reference compound] came in with an IC50 in data set [3] of 23 µM.

With `CCCCN1CCC(O)(c2cccc(S(C)(=O)=O)c2F)CC1`, the “ED50 DOPAC*” value in data set [2] was “Inactive***”.

On to `CCCN1CCC(O)(c2cccc(C(F)(F)F)c2OC)CC1`, for which, in data set [2], the “ED50 DOPAC*” value is “Inactive***”.

Turning to `CCN1CCC(O)(c2cc(F)cc(C(F)(F)F)c2)CC1`, the entries for the “ED50 DOPAC*” value in data set [2] and in data set [2] (listed as comparative example 10) were “Inactive***” and “inactive”, respectively.

In turn, `COCCN1CCC(O)(c2cccc(C(F)(F)F)c2F)CC1` (as salt: hydrochloric acid salt) [Example 4, 4-[2-FLUORO-3-(TRIFLUOROMETHYL)PHENYL]-1-(2-M ETHOXYETHYL)PIPERIDIN-4-OL] yielded a melting point of 159 to 160 °C.

For the compound `COCCN1CCC(O)(c2ccc(Cl)c(C(F)(F)F)c2)CC1` [drawing 30], the ED50 in data set [2] worked out at 32 µmol/kg. The compound also gave a 50% inhibitory concentration (IC50) in data set [3] of 68 µM.

Turning to `CCCN1CCC(O)(c2ccc(F)c(C(F)(F)F)c2)CC1` (as salt: hydrochloric acid salt) [Example 8, 4-[4-FLUORO-3-(TRIFLUOROMETHYL)PHENYL]-1-PROPYLPIPERIDIN-4-OL], the melting point was in the range of 179 to 181 °C.

Take `CCN1CCC(O)(c2cccc(C(F)(F)F)c2F)CC1` [drawing 56]: the “Locomotor activity, MK + example 100 μmol/kg” value in data set [1] is recorded as 18307 ± 7375 (P =0.3) counts/30 min ± SEM.

With `COCCN1CCC(O)(c2ccc(Cl)c(C(F)(F)F)c2)CC1` [drawing 59], the “Locomotor activity, MK + example 100 μmol/kg” value in data set [1] is 7407 ± 3282 (P =0.00003) counts/30 min ± SEM.

In data set [2], `CCCCN1CCC(O)(c2cccc(C(F)(F)F)c2F)CC1` [drawing 28] yielded an ED50 of 13 µmol/kg. Further, in data set [3], the IC50 came to 69 µM.

In the case of `COCCN1CCC(O)(c2ccc(Cl)c(C(F)(F)F)c2)CC1` (as salt: hydrochloric acid salt) [Example 2, 4-[4-CHLORO-3-(TRIFLUOROMETHYL)PHENYL]-1-(2-METHOXYETHYL)PIPERIDIN-4-OL], the melting point is 181 to 183 °C.

Consider `CCCN1CCC(O)(c2ccc(F)c(C(F)(F)F)c2)CC1` [drawing 29], for which the 50% effective dose (ED50) in data set [2] stood at 76 µmol/kg. This compound also showed an IC50 in data set [3] of 60 µM.

Compound `CCN1CCC(O)(c2cccc(C(F)(F)F)c2F)CC1` (as salt: hydrochloric acid salt) [Example 3, 4-[2-FLUORO-3-(TRIFLUOROMETHYL)PHENYL]-1-ETHYLPIPERIDIN-4-OL] yielded a melting point of 177 to 180 °C.

In data set [2], `CCCN1CCC(c2cccc(C(F)(F)F)c2)CC1` registered an ED50 of 84 µmol/kg.

`CCCN1CCC(c2cccc(Cl)c2Cl)CC1` [reference compound] gave an ED50 in data set [2] of 41 µmol/kg. Further, the IC50 in data set [3] was 5.66 µM.

Take `CCCN1CCC(O)(c2ccc(F)c(C(F)(F)F)c2)CC1` [drawing 58]: the “Locomotor activity, MK + example 100 μmol/kg” value in data set [1] is recorded as 7312 ± 4537 (P =0.0005) counts/30 min ± SEM.

In the case of `CCN1CCC(O)(c2cccc(C(F)(F)F)c2F)CC1` [drawing 26], it took a dose of 65 µmol/kg to reach the 50% effect level in data set [2] (ED50). Also, the IC50 in data set [3] amounted to 424 µM.

For the compound `COCCN1CCC(O)(c2cccc(C(F)(F)F)c2F)CC1` [drawing 27], it took a dose of 43 µmol/kg to reach the 50% effect level in data set [2] (ED50). In data set [3], this compound displayed a half-inhibitory concentration (IC50) of 350 µM.

On to `CCCN1CCC(O)(c2cccc(C(F)(F)F)c2F)CC1` (as salt: hydrochloric acid salt) [Example 1, 4-[2-FLUORO-3-(TRIFLUOROMETHYL)PHENYL]-1-PROPYLPIPERIDIN-4-OL], for which the melting point fell in the range of 175 to 177 °C.
